Entries after “also recorded” stand apart in the source; their conditions may differ. Like-named read-outs stand apart in the source and are kept apart here.
Key:
Type in all cases: cell-based
[1] = tested on: SW620 tumor organoids; assay: Tumor organoid cytotoxicity / 3D cell viability (CellTox Green)
Experimental: Tumor organoid cytotoxicity. Fluorescence image-based method: The CellTox™ Green assay (Promega, Madison, WI, USA) was used with 3D tumor organoid to measure spheroid death. 0.1% CellTox™ Green was included in each well at the time of analogs dosing. 10% lysis solution was used as a cell death control. Fluorescence was measured at various time points with 465-510 nm excitation and 520-530 nm emission. Luminescence plate reader method: A 1:1 ratio of CellTiter-Glo™ 3D reagent (Promega) was added to 3D tumor organoid and the plate was shaken at 400 rpm for 30 min before luminescence was read with a PerkinElmer Envision plate reader.
Finally, SW620 tumor organoid cytotoxicity experiments were conducted using the CellTox Green assay, a fluorescence image-based method, to determine whether the inhibition of TCF transcription and effects on EMT are not the result of cytotoxicity. […] All of the analogs tested display IC50 dose response >30 μM and were higher compared to the IC50 values obtained during the downregulation of TCF transcription activity, and the EC50 values obtained for EMT modulation. Thus, the biological effects on TCF-transcription and EMT are not a result of tumor organoid cell death.
(§1) Tumor organoid cytotoxicity. SW620 tumor organoids were grown as previously outlined. CellTox™ Green-Express Cytotoxicity Assay (Promega, WI) solution was prepared per manufacturer's protocol. Briefly, organoids were treated for 72 h with CellTox™ Green Express (0.5×) reagent and various doses of TOP2A inhibitors over a range of 0-to-40 μM. Organoids were then imaged using the Opera Phenix HCS system (PerkinElmer, MA). CellTox™ Green Express was excited at 488 nm and emission was detected at 500-550 nm. Mean intensity of the whole well was utilized for calculating cytotoxicity with Lysis Buffer (Promega, WI, 0.025×) as the 0% viability control and 0.4% DMSO as the 100% viability control. Intensity values were normalized to these controls using GraphPad Prism 7.0 (GraphPad, CA).
as §1, with “CellTox™-Green-Express” for “CellTox™ Green-Express”, “(GraphPad.” for “(GraphPad,”

[2] = tested on: E-cadherin promoter activity (EcadPro-RFP) in SW620 cells; assay: EcadPro-RFP (mCherry) EMT reporter assay; conditions: SW620 tumor organoids; for EC50: Table 2, 72 hours, read-out: % E-cadherin upregulation EC50
Description: (§2) VimPro-GFP and EcadPro-RFP reporter assays. […] 35(38): p. 4990-9.]
as §2

[3] = tested on: H2AX S139 phosphorylation (γ-H2AX) in colon cancer cell lines HT29 and SW620; assay: γ-H2AX DNA damage assay (immunofluorescence); conditions: 0-40 μM for Neo, 7, BAP1, 5-100 μM for etoposide
Experimental: γ-H2AXDNA damage assay. Colon cancer cell lines HT29 and SW620 were plated to black clear bottom 96 well plates at 20,000 cells/well in 100 μL of phenol red free medium. […] Cells were fixed with 4% paraformaldehyde at room temp for 20 min, washed 3 times with 400 μL/well of PBS, permeabilized and blocked with 100 μL of 3% BSA and 0.1% IGEPAL in PBS for 20 min. Cells were then incubated in γ-H2AX primary antibody (Cell Signaling, 1:400 dilution) at 4° C. overnight, washed 4 times with PBS, and incubated with FITC conjugated anti-rabbit secondary antibody (Cell Signaling, 1:200 dilution) at room temp for 1 hour, and washed 4 times with PBS. Cells were stained with 10 μM of Hoechst 33342 at room temp for 10 min, washed 4 times with PBS before imaged with a 20× objective using PerkinElmer Operetta imager.

[4] = Homo sapiens, SW-620, Table 2, 72 hours

| Structure (SMILES) | IC50 [1, 4] | EC50 ([2]; Homo sapiens, SW-620) | IC50 ([1]; Table 2, 72 hours) | EC50 [2] | DNA double stranded breaks (γ-H2AX) [3] | other results |
| --- | --- | --- | --- | --- | --- | --- |
| O=C(CCN1CCOCC1)Nc1ccc2c(-c3cc(F)ccc3O)ccnc2c1O [Analog 42] | > 30 µM | 5.9 µM |  |  |  |  |
| CC(=O)Nc1ccc(-c2ccnc3c(O)c(NC(C)=O)ccc23)cc1 [Analog 35] |  |  | > 30 µM | 5.5 µM |  |  |
| CC(=O)Nc1ccc2c(-c3ccoc3)ccnc2c1O [Analog 56] | > 30 µM | 10.6 µM |  |  |  |  |
| CC(=O)Nc1ccc2c(-c3cc(F)ccc3O)ccnc2c1O [Analog 7] | > 30 µM | 5.3 µM |  |  | do not damage DNA; also recorded: do not cause DNA DSBs | E-cadherin upregulation (EcadPro-RFP), in words [2]: upregulation of E-cadherin |
| Cn1ccc2c(c1=O)C(=O)c1nccc3c1C2NC1=CCC=CC13 (centres unmarked) [neo, neoamphimedine, reference compound] |  |  |  |  | do not damage DNA | DNA double stranded breaks (γ-H2AX) ([3]; listed as Neo): do not cause DNA DSBs |
| CC(C)(C)C(=O)Nc1ccc2c(-c3ccccc3)ccnc2c1O [Analog 39] |  |  | > 30 µM | 3.1 µM |  |  |

— patent US12291502B2, “Topoisomerase II-alpha inhibitors and methods of treating cancer using the same” (The Regents of the University of Colorado, priority 2019, dated 2025)
